In publication PMC6858373 (Scientific Reports, 2019):
Counter-ions that a name gives are not always drawn. Like-named read-outs stand apart in the source and are kept apart here.

Tests used:
[1] = target: full-length P. pyralis luciferase (Photinus pyralis, UniProt P08659, K549A/L550V/N119G/N50D/S548I); format: cell-based; settings: CC_NCI screening, normalized to on-plate 0.3% DMSO controls; for Luciferase Assay % Lum: full-length luciferase counter-screen luminescence; for Luciferase Assay Z-score: full-length luciferase counter-screen
full-length P. pyralis luciferase, sequence (P08659 whole entry N50D/N119G/S548I/K549A/L550V, looked up): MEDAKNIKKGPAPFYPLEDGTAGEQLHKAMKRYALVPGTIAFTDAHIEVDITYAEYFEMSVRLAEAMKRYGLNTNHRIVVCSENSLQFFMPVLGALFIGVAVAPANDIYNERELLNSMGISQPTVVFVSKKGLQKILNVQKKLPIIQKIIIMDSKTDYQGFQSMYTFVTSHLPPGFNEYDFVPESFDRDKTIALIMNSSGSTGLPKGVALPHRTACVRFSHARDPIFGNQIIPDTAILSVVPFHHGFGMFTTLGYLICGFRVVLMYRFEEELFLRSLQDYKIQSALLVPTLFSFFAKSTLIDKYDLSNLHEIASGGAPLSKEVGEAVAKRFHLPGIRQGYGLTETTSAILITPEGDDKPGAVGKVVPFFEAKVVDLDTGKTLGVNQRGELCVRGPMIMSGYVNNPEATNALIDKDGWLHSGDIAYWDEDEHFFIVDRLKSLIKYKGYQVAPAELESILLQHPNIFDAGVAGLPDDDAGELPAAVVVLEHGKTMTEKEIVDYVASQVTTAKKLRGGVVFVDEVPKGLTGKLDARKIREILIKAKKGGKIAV

Clone V cells [2] = tested on: Clone V cells
in vitro = settings: human
[3] = target: T1, FGF14:Nav1.6 C-tail complex (Homo sapiens, UniProt Q92915+Q9UQD0); test: Split-luciferase complementation assay (LCA) in Clone V double stable HEK293 cells; format: cell-based; settings: for Split Luciferase Assay % Lum Set 1 / Split Luciferase Assay Z-score Set 1: biological replicate Set 1; for Split Luciferase Assay % Lum Set 1 / Split Luciferase Assay %Lum Set 2: normalized to on-plate 0.3% DMSO controls (n=16 per plate); for Split Luciferase Assay %Lum Set 2 / Split Luciferase Assay Z-score Set 2: biological replicate Set 2; for Split Luciferase Assay Z-score Set 1 / Split Luciferase Assay Z-score Set 2: normalized to on-plate 0.3% DMSO controls; for Split Luciferase Assay %Lum Avg: average of Set 1 and Set 2, normalized to 0.3% DMSO controls
T1 construct: polymerase chain reaction (PCR) amplification of the FGF14 open reading frame (nt 1–855); C-terminal fragment of Nav1.6 (amino acids 1763–1976) fused with CD4ΔC-tail (amino acids 1–395); expressed in transfected cells
T1 sequence (Q92915 1-252 isoform Q92915-2): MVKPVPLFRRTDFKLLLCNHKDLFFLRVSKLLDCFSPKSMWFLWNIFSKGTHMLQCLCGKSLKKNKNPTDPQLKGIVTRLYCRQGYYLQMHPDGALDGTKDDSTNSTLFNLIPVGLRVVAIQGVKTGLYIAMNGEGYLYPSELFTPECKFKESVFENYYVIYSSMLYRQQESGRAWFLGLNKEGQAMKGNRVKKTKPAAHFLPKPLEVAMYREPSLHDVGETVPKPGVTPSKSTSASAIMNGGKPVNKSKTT
T1 sequence (Q9UQD0 1763-1976 limits assumed): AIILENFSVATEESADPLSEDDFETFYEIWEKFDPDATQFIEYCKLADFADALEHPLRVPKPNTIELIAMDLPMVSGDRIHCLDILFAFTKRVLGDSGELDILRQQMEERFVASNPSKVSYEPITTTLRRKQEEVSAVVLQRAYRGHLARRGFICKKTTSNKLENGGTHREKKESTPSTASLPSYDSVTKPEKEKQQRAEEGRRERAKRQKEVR

Clone V cells [4] = test: CellTiter Blue (CTB) cell viability counter-screen; settings: CC_NCI screening, normalized to on-plate 0.3% DMSO controls; for Toxicity Assay % Fluor: CTB cell viability fluorescence
[5] = CC_NCI screening, LCA luminescence

COc1c2occc2cc2ccc(=O)oc12 [Methoxsalen]
Luciferase Assay % Lum (full-length luciferase counter-screen) [1]: 93.90%
Luciferase Assay Z-score (full-length luciferase counter-screen) [1]: -0.78
Toxicity Assay Z-score (CTB cell viability) (Clone V cells [2]; human, 16 h, 30 µM): 1.23
viability at 16 h, 30 µM (in vitro): 109%

Cc1ccc(C(=O)Nc2ccc(CN3CCN(C)CC3)c(C(F)(F)F)c2)cc1C#Cc1cnc2cccnn12 [Ponatinib]
Luciferase Assay % Lum [1]: 84.93%
Luciferase Assay Z-score [1]: -1.93
Toxicity Assay Z-score (Clone V cells [2]; human): -2.66
Split Luciferase Assay % Lum Set 1 [3, 5]: 53.59%
Split Luciferase Assay %Lum Set 2 [3, 5]: 58.26%
Split Luciferase Assay Z-score Set 1 ([3]; CC_NCI screening, LCA): -3.75
Split Luciferase Assay Z-score Set 2 ([3]; CC_NCI screening, LCA): -3.40
Split Luciferase Assay %Lum Avg ([3]; CC_NCI screening): 55.93%
Toxicity Assay % Fluor (Clone V cells [4]): 80.95%

CC1(C)CCC(c2ccc(Cl)cc2)=C(CN2CCN(c3ccc(C(=O)NS(=O)(=O)c4ccc(N[C@H](CCN5CCOCC5)CSc5ccccc5)c(S(=O)(=O)C(F)(F)F)c4)cc3)CC2)C1 [ABT-263]
Luciferase Assay % Lum [1]: 103.24%
Luciferase Assay Z-score [1]: 0.42
Toxicity Assay Z-score (Clone V cells [2]; human, 16 h, 30 µM): -0.99
Split Luciferase Assay % Lum Set 1 [3, 5]: 93.82%
Split Luciferase Assay %Lum Set 2 [3, 5]: 71.78%
Split Luciferase Assay Z-score Set 1 ([3]; CC_NCI screening, LCA): -0.50
Split Luciferase Assay Z-score Set 2 ([3]; CC_NCI screening, LCA): -2.30
Split Luciferase Assay %Lum Avg ([3]; CC_NCI screening): 82.80%
Toxicity Assay % Fluor (Clone V cells [4]): 92.92%

CNC(=O)c1ccccc1Sc1ccc2c(/C=C/c3ccccn3)n[nH]c2c1 [AXITINIB]
Luciferase Assay % Lum [1]: 40.56%
Luciferase Assay Z-score [1]: -7.61
Toxicity Assay Z-score (Clone V cells [2]; human, 16 h, 30 µM): -1.18
Split Luciferase Assay % Lum Set 1 [3, 5]: 107.95%
Split Luciferase Assay %Lum Set 2 [3, 5]: 91.55%
Split Luciferase Assay Z-score Set 1 ([3]; CC_NCI screening, LCA): 0.64
Split Luciferase Assay Z-score Set 2 ([3]; CC_NCI screening, LCA): -0.69
Split Luciferase Assay %Lum Avg ([3]; CC_NCI screening): 99.75%
Toxicity Assay % Fluor (Clone V cells [4]): 91.58%

O=C(/C=C/c1cccc(S(=O)(=O)Nc2ccccc2)c1)NO [PXD101]
Luciferase Assay % Lum [1]: 87.87%
Luciferase Assay Z-score [1]: -1.55
Toxicity Assay Z-score (Clone V cells [2]; human, 16 h, 30 µM): -0.54
Split Luciferase Assay % Lum Set 1 [3, 5]: 105.78%
Split Luciferase Assay %Lum Set 2 [3, 5]: 106.11%
Split Luciferase Assay Z-score Set 1 ([3]; CC_NCI screening, LCA): 0.47
Split Luciferase Assay Z-score Set 2 ([3]; CC_NCI screening, LCA): 0.50
Split Luciferase Assay %Lum Avg ([3]; CC_NCI screening): 105.94%
Toxicity Assay % Fluor (Clone V cells [4]): 96.16%

CC1=C(/C=C/C(C)=C/C=C/C(C)=C/C(=O)O)C(C)(C)CCC1 [Tretinoin]
Luciferase Assay % Lum [1]: 80.43%
Luciferase Assay Z-score [1]: -2.51
Toxicity Assay Z-score (Clone V cells [2]; human, 16 h, 30 µM): -1.78
Split Luciferase Assay % Lum Set 1 [3, 5]: 117.73%
Split Luciferase Assay %Lum Set 2 [3, 5]: 106.11%
Split Luciferase Assay Z-score Set 1 ([3]; CC_NCI screening, LCA): 1.43
Split Luciferase Assay Z-score Set 2 ([3]; CC_NCI screening, LCA): 0.50
Split Luciferase Assay %Lum Avg ([3]; CC_NCI screening): 111.92%
Toxicity Assay % Fluor (Clone V cells [4]): 87.25%

CNCc1ccc(-c2[nH]c3cc(F)cc4c3c2CCNC4=O)cc1 [AG014699]
Luciferase Assay % Lum [1]: 82.53%
Luciferase Assay Z-score [1]: -2.24
Toxicity Assay Z-score (Clone V cells [2]; human, 16 h, 30 µM): -0.48
Split Luciferase Assay % Lum Set 1 [3, 5]: 65.55%
Split Luciferase Assay %Lum Set 2 [3, 5]: 67.62%
Split Luciferase Assay Z-score Set 1 ([3]; CC_NCI screening, LCA): -2.78
Split Luciferase Assay Z-score Set 2 ([3]; CC_NCI screening, LCA): -2.63
Split Luciferase Assay %Lum Avg ([3]; CC_NCI screening): 66.59%
Toxicity Assay % Fluor (Clone V cells [4]): 96.59%

Oc1ncnc2[nH]ncc12 [Allopurinol]
Luciferase Assay % Lum [1]: 96.95%
Luciferase Assay Z-score [1]: -0.39
Toxicity Assay Z-score (Clone V cells [2]; human, 16 h, 30 µM): -1.65
Split Luciferase Assay % Lum Set 1 [3, 5]: 106.86%
Split Luciferase Assay %Lum Set 2 [3, 5]: 95.71%
Split Luciferase Assay Z-score Set 1 ([3]; CC_NCI screening, LCA): 0.55
Split Luciferase Assay Z-score Set 2 ([3]; CC_NCI screening, LCA): -0.35
Split Luciferase Assay %Lum Avg ([3]; CC_NCI screening): 101.29%
Toxicity Assay % Fluor (Clone V cells [4]): 88.22%

Clc1ccc(Nc2nnc(Cc3ccncc3)c3ccccc23)cc1 [VATALANIB]
Luciferase Assay % Lum [1]: 78.45%
Luciferase Assay Z-score [1]: -2.76
Toxicity Assay Z-score (Clone V cells [2]; human, 16 h, 30 µM): -1.79
Split Luciferase Assay % Lum Set 1 [3, 5]: 64.47%
Split Luciferase Assay %Lum Set 2 [3, 5]: 69.70%
Split Luciferase Assay Z-score Set 1 ([3]; CC_NCI screening, LCA): -2.87
Split Luciferase Assay Z-score Set 2 ([3]; CC_NCI screening, LCA): -2.47
Split Luciferase Assay %Lum Avg ([3]; CC_NCI screening): 67.08%
Toxicity Assay % Fluor (Clone V cells [4]): 87.19%

C[C@]12CC[C@H](O)CC1=CC[C@@H]1[C@@H]2CC[C@]2(C)C(c3cccnc3)=CC[C@@H]12 [Abiraterone]
Luciferase Assay % Lum [1]: 85.19%
Luciferase Assay Z-score [1]: -1.90
Toxicity Assay Z-score (Clone V cells [2]; human, 16 h, 30 µM): -2.19
Split Luciferase Assay % Lum Set 1 [3, 5]: 115.56%
Split Luciferase Assay %Lum Set 2 [3, 5]: 148.76%
Split Luciferase Assay Z-score Set 1 ([3]; CC_NCI screening, LCA): 1.26
Split Luciferase Assay Z-score Set 2 ([3]; CC_NCI screening, LCA): 3.97
Split Luciferase Assay %Lum Avg ([3]; CC_NCI screening): 132.16%
Toxicity Assay % Fluor (Clone V cells [4]): 84.37%

COC1=CC(c2cc3ccccc3[nH]2)=N/C1=C\c1[nH]c(C)cc1C [OBATOCLAX]
Luciferase Assay % Lum [1]: 78.33%
Luciferase Assay Z-score [1]: -2.78
Toxicity Assay Z-score (Clone V cells [2]; human, 16 h, 30 µM): -1.76
Split Luciferase Assay % Lum Set 1 [3, 5]: 59.03%
Split Luciferase Assay %Lum Set 2 [3, 5]: 61.38%
Split Luciferase Assay Z-score Set 1 ([3]; CC_NCI screening, LCA): -3.31
Split Luciferase Assay Z-score Set 2 ([3]; CC_NCI screening, LCA): -3.14
Split Luciferase Assay %Lum Avg ([3]; CC_NCI screening): 60.20%
Toxicity Assay % Fluor (Clone V cells [4]): 87.39%

CC[C@@]1(O)C(=O)OCc2c1cc1n(c2=O)Cc2cc3c(CN(C)C)c(O)ccc3nc2-1 [Topotecan hydrochloride]
Luciferase Assay % Lum [1]: 88.71%
Luciferase Assay Z-score [1]: -1.45
Toxicity Assay Z-score (Clone V cells [2]; human, 16 h, 30 µM): -0.96
Split Luciferase Assay % Lum Set 1 [3, 5]: 57.94%
Split Luciferase Assay %Lum Set 2 [3, 5]: 58.26%
Split Luciferase Assay Z-score Set 1 ([3]; CC_NCI screening, LCA): -3.40
Split Luciferase Assay Z-score Set 2 ([3]; CC_NCI screening, LCA): -3.40
Split Luciferase Assay %Lum Avg ([3]; CC_NCI screening): 58.10%
Toxicity Assay % Fluor (Clone V cells [4]): 93.13%

CC(=O)OCCN1C(=O)c2c(C)nc3ccc(S(=O)(=O)N4CCOCC4)cc3c2C1=O [IVACHTIN]
Luciferase Assay % Lum (full-length luciferase counter-screen) [1]: 102.63%
Luciferase Assay Z-score (full-length luciferase counter-screen) [1]: 0.34
Toxicity Assay % Fluor (CTB cell viability fluorescence) (Clone V cells [2]): 108.95%
Split Luciferase Assay Z-score Set 1 ([3]; CC_NCI screening): 0.99
Split Luciferase Assay % Lum Set 1 ([3]; CC_NCI screening): 112.30%
Split Luciferase Assay Z-score Set 2 ([3]; CC_NCI screening): -3.23
Split Luciferase Assay %Lum Set 2 ([3]; CC_NCI screening): 60.34%
Split Luciferase Assay %Lum Avg [3]: 86.32%
Toxicity Assay Z-score (CTB cell viability) (Clone V cells [4]): 1.25

C#Cc1cccc(Nc2ncnc3cc(OCCOC)c(OCCOC)cc23)c1 [Erlotinib hydrochloride]
Luciferase Assay % Lum [1]: 82.34%
Luciferase Assay Z-score [1]: -2.26
Toxicity Assay Z-score (Clone V cells [2]; human, 16 h, 30 µM): -0.92
Split Luciferase Assay % Lum Set 1 [3, 5]: 118.82%
Split Luciferase Assay %Lum Set 2 [3, 5]: 73.86%
Split Luciferase Assay Z-score Set 1 ([3]; CC_NCI screening, LCA): 1.52
Split Luciferase Assay Z-score Set 2 ([3]; CC_NCI screening, LCA): -2.13
Split Luciferase Assay %Lum Avg ([3]; CC_NCI screening): 96.34%
Toxicity Assay % Fluor (Clone V cells [4]): 93.40%

Oc1ccc(-c2nc(-c3ccncc3)c(-c3ccc(F)cc3)[nH]2)cc1 [SB 202190]
Luciferase Assay % Lum [1]: 79.13%
Luciferase Assay Z-score [1]: -2.67
Toxicity Assay Z-score (Clone V cells [2]; human, 16 h, 30 µM): -0.55
Split Luciferase Assay % Lum Set 1 [3, 5]: 101.43%
Split Luciferase Assay %Lum Set 2 [3, 5]: 105.07%
Split Luciferase Assay Z-score Set 1 ([3]; CC_NCI screening, LCA): 0.12
Split Luciferase Assay Z-score Set 2 ([3]; CC_NCI screening, LCA): 0.41
Split Luciferase Assay %Lum Avg ([3]; CC_NCI screening): 103.25%
Toxicity Assay % Fluor (Clone V cells [4]): 96.10%
